Measured values as given in patent US20240018145A1, “[…]-DEPENDENT EN[…] TREATING OR […]” (priority 2020, published 2024).
Where two headings read alike, the source gives them in different places.

System: FLU A (PR/8/34)
Test: Flu A Neuraminidase Antiviral Assay
Type: cell-based

SMILES	EC50 (MDCK, 48 h) [nM]	EC50 [nM]
CN1C(=O)c2c(O)c(=O)ccn2N2C(c3ccccc3)C(O)CCC12 (single isomer, unassigned) [Compound 135A, 2,7-dihydroxy-5-methyl-1-phenyl-1,2,3,4,4a,5-hexahydrodipyrido[1,2-b:2′,1′-f][1,2,4]triazine-6,8-dione]	428	–
Cc1ccccc1C1C(CC2CC2(F)F)CCC2N(C)C(=O)c3c(O)c(=O)ccn3N12 (single isomer, unassigned) [Compound 88D]	–	2.9
CN1C(=O)c2c(O)c(=O)ccn2N2C(c3ccccc3)C(CC3CC3(F)F)CCC12 (single isomer, unassigned) [Compound 114A, 2-((2,2-difluorocyclopropyl)methyl)-7-hydroxy-5-methyl-1-phenyl-1,2,3,4,4a,5-hexahydrodipyrido[1,2-b:2′,1′-f][1,2,4]triazine-6,8-dione]	–	> 8100
CN1C(=O)c2c(O)c(=O)ccn2N2C1CCCC2(C)c1ccncc1 (single isomer, unassigned) [Compound 31A, 7-hydroxy-1,5-dimethyl-1-(pyridin-4-yl)-1,2,3,4,4a,5-hexahydrodipyrido[1,2-b:2′,1′-f][1,2,4]triazine-6,8-dione]	–	283
CCN1C(=O)c2c(O)c(=O)cc(COC)n2N2C(c3ccccc3)C(CC(F)(F)F)CCC12 (centres unmarked) [Compound 131C, 5-ethyl-7-hydroxy-10-(methoxymethyl)-1-phenyl-2-(2,2,2-trifluoroethyl)-1,2,3,4,4a,5-hexahydrodipyrido[1,2-b:2′,1′-f][1,2,4]triazine-6,8-dione]	–	> 810
CN1C(=O)c2c(O)c(=O)ccn2N2C(c3ccccc3)C(CC(F)(F)F)CCC12C (single isomer, unassigned) [Compound 111B, 7-hydroxy-4a,5-dimethyl-1-phenyl-2-(2,2,2-trifluoroethyl)-1,2,3,4,4a,5-hexahydrodipyrido[1,2-b:2′,1′-f][1,2,4]triazine-6,8-dione]	–	3.3
CC1(c2ccccc2)CCCC2N(CC(F)(F)F)C(=O)c3c(O)c(=O)ccn3N21 (single isomer, unassigned) [Compound 34B, 7-hydroxy-1-methyl-1-phenyl-5-(2,2,2-trifluoroethyl)-1,2,3,4,4a,5-hexahydrodipyrido[1,2-b:2′,1′-f][1,2,4]triazine-6,8-dione]	–	4.9
CCN1C(=O)c2c(O)c(=O)cc(COC)n2N2C(c3ccccc3)C(CC(F)(F)F)CCC12 (centres unmarked) [Compound 131F, 5-ethyl-7-hydroxy-10-(methoxymethyl)-1-phenyl-2-(2,2,2-trifluoroethyl)-1,2,3,4,4a,5-hexahydrodipyrido[1,2-b:2′,1′-f][1,2,4]triazine-6,8-dione]	–	12.5
CN1C(=O)c2c(O)c(=O)ccn2N2C1CCCC2(C)c1c(F)cccc1F (single isomer, unassigned) [Compound 23B, 1-(2,6-difluorophenyl)-7-hydroxy-1,5-dimethyl-1,2,3,4,4a,5-hexahydrodipyrido[1,2-b:2′,1′-f][1,2,4]triazine-6,8-dione]	–	2.6
CN1C(=O)c2c(O)c(=O)ccn2N2C(c3ccccc3)C(CCC(F)F)CCC12 (single isomer, unassigned) [Compound 124A, 2-(3,3-difluoropropyl)-7-hydroxy-5-methyl-1-phenyl-1,2,3,4,4a,5-hexahydrodipyrido[1,2-b:2′,1′-f][1,2,4]triazine-6,8-dione]	–	871
CN1C(=O)c2c(O)c(=O)ccn2N2C(c3ccccc3)C(CCC(F)(F)F)CCC12C (single isomer, unassigned) [Compound 78B, 7-hydroxy-4a,5-dimethyl-1-phenyl-2-(3,3,3-trifluoropropyl)-1,2,3,4,4a,5-hexahydrodipyrido[1,2-b:2′,1′-f][1,2,4]triazine-6,8-dione]	–	2.9
CN1C(=O)c2c(O)c(=O)ccn2N2C(c3ccccc3)CCCC12 (single isomer, unassigned) [Compound 1A, 7-hydroxy-5-methyl-1-phenyl-1,2,3,4,4a,5-hexahydrodipyrido[1,2-b:2′,1′-f][1,2,4]triazine-6,8-dione]	–	> 8100
Cc1cccc(F)c1C1C(CC(F)(F)F)CCC2N(C)C(=O)c3c(O)c(=O)ccn3N12 (single isomer, unassigned) [Compound 77B, 1-(2-fluoro-6-methylphenyl)-7-hydroxy-5-methyl-2-(2,2,2-trifluoroethyl)-1,2,3,4,4a,5-hexahydrodipyrido[1,2-b:2′,1′-f][1,2,4]triazine-6,8-dione]	–	3.2
Cc1ccnc(C2(C)CCCC3N(CC(F)(F)F)C(=O)c4c(O)c(=O)ccn4N32)c1 (single isomer, unassigned) [Compound 50B, 7-hydroxy-1-methyl-1-(4-methylpyridin-2-yl)-5-(2,2,2-trifluoroethyl)-1,2,3,4,4a,5-hexahydrodipyrido[1,2-b:2′,1′-f][1,2,4]triazine-6,8-dione]	–	9
CCCC1CCC2N(C)C(=O)c3c(O)c(=O)ccn3N2C1(C)c1ccccc1 (single isomer, unassigned) [Compound 33A, 7-hydroxy-1,5-dimethyl-1-phenyl-2-propyl-1,2,3,4,4a,5-hexahydrodipyrido[1,2-b:2′,1′-f][1,2,4]triazine-6,8-dione]	–	49.5
CN1C(=O)c2c(O)c(=O)ccn2N2C1CCC1(CCC(C(F)(F)F)CC1)C2c1ccccc1 (single isomer, unassigned) [Compound 73C, 7′-hydroxy-5′-methyl-1′-phenyl-4-(trifluoromethyl)-3′,4′,4a′,5′-tetrahydro-1′H-spiro[cyclohexane-1,2′-dipyrido[1,2-b:2′,1′-f][1,2,4]triazine]-6′,8′-dione]	–	105
CCN1C(=O)c2c(O)c(=O)ccn2N2C(c3ccccc3)C(C3(C(F)(F)F)CC3)CCC12 (single isomer, unassigned) [Compound 104B, 5-ethyl-7-hydroxy-1-phenyl-2-(1-(trifluoromethyl)cyclopropyl)-1,2,3,4,4a,5-hexahydrodipyrido[1,2-b:2′,1′-f][1,2,4]triazine-6,8-dione]	–	> 810
CCN1C(=O)c2c(O)c(=O)cc(COC)n2N2C(c3ccccc3)C(CC(F)(F)F)CCC12 (centres unmarked) [Compound 131D, 5-ethyl-7-hydroxy-10-(methoxymethyl)-1-phenyl-2-(2,2,2-trifluoroethyl)-1,2,3,4,4a,5-hexahydrodipyrido[1,2-b:2′,1′-f][1,2,4]triazine-6,8-dione]	–	> 810
CN1C(=O)c2c(O)c(=O)ccn2N2C1CCCC2(C)c1ccc(F)cc1 (single isomer, unassigned) [Compound 26A, 1-(4-fluorophenyl)-7-hydroxy-1,5-dimethyl-1,2,3,4,4a,5-hexahydrodipyrido[1,2-b:2′,1′-f][1,2,4]triazine-6,8-dione]	–	8.4
C=CCC1CCC2N(C)C(=O)c3c(O)c(=O)ccn3N2C1c1ccccc1Cl (centres unmarked) [Compound 64C, 2-allyl-1-(2-chlorophenyl)-7-hydroxy-5-methyl-1,2,3,4,4a,5-hexahydrodipyrido[1,2-b:2′,1′-f][1,2,4]triazine-6,8-dione]	–	674
CC1(c2ccccc2)CCCC2N(CC(F)(F)F)C(=O)c3c(O)c(=O)ccn3N21 (single isomer, unassigned) [Compound 34A, 7-hydroxy-1-methyl-1-phenyl-5-(2,2,2-trifluoroethyl)-1,2,3,4,4a,5-hexahydrodipyrido[1,2-b:2′,1′-f][1,2,4]triazine-6,8-dione]	–	3090
CN1C(=O)c2c(O)c(=O)ccn2N2C1CCC(C)(C)C2(C)c1ccccc1 (single isomer, unassigned) [Compound 35A, 7-hydroxy-1,2,2,5-tetramethyl-1-phenyl-1,2,3,4,4a,5-hexahydrodipyrido[1,2-b:2′,1′-f][1,2,4]triazine-6,8-dione]	–	138
COCCCO[C@@H]1CC[C@H]2N(C)C(=O)c3c(O)c(=O)ccn3N2[C@@H]1c1ccccc1 [Compound 163, (1R,2R,4aS)-7-hydroxy-2-(3-methoxypropoxy)-5-methyl-1-phenyl-1,2,3,4,4a,5-hexahydrodipyrido[1,2-b:2′,1′-f][1,2,4]triazine-6,8-dione]	270	–
CN1C(=O)c2c(O)c(=O)ccn2N2[C@H](c3ccccc3)[C@@H](n3cc(CO)nn3)CC[C@@H]12 [Compound 141, (1R,2S,4aS)-7-hydroxy-2-(4-(hydroxymethyl)-1H-1,2,3-triazol-1-yl)-5-methyl-1-phenyl-1,2,3,4,4a,5-hexahydrodipyrido[1,2-b:2′,1′-f][1,2,4]triazine-6,8-dione]	> 8100	–
CN1C(=O)c2c(O)c(=O)ccn2N2C(c3ccccc3)C(CC(F)(F)F)CCC12 (single isomer, unassigned) [Compound 118B, 7-hydroxy-5-methyl-1-phenyl-2-(2,2,2-trifluoroethyl)-1,2,3,4,4a,5-hexahydrodipyrido[1,2-b:2′,1′-f][1,2,4]triazine-6,8-dione]	–	3.1
CN1C(=O)c2c(O)c(=O)ccn2N2C1CCC(C)(CC(F)(F)F)C2c1ccccc1 (single isomer, unassigned) [Compound 71A, 7-hydroxy-2,5-dimethyl-1-phenyl-2-(2,2,2-trifluoroethyl)-1,2,3,4,4a,5-hexahydrodipyrido[1,2-b:2′,1′-f][1,2,4]triazine-6,8-dione]	–	5910
CN1C(=O)c2c(O)c(=O)ccn2N2[C@H](c3ccccc3)[C@H](OCc3ccc(F)c(F)c3)CC[C@@H]12 [Compound 157, (1R,2R,4aS)-2-((3,4-difluorobenzyl)oxy)-7-hydroxy-5-methyl-1-phenyl-1,2,3,4,4a,5-hexahydrodipyrido[1,2-b:2′,1′-f][1,2,4]triazine-6,8-dione]	336	–
Cc1ccccc1C1C(c2ccc(F)c(F)c2)CCC2N(C)C(=O)c3c(O)c(=O)ccn3N12 (single isomer, unassigned) [Compound 91B, 2-(3,4-difluorophenyl)-7-hydroxy-5-methyl-1-(o-tolyl)-1,2,3,4,4a,5-hexahydrodipyrido[1,2-b:2′,1′-f][1,2,4]triazine-6,8-dione]	–	7.3
CN1C(=O)c2c(O)c(=O)ccn2N2C1CCCC2(C)c1ncc(F)cc1F (single isomer, unassigned) [Compound 46B, 1-(3,5-difluoropyridin-2-yl)-7-hydroxy-1,5-dimethyl-1,2,3,4,4a,5-hexahydrodipyrido[1,2-b:2′,1′-f][1,2,4]triazine-6,8-dione]	–	> 8100
